Measured values from patent publication US20200087625A1, “METHODS FOR ISOLATING, EXPANDING AND ADMINISTERING CANCER SPECIFIC CD8+ T CELLS” (priority 2017, published 2020).

Experiments:
[1] = cited from earlier work
[2] = Serum cytokine analysis (Luminex) after systemic administration; type: in vivo, BALB/c mice; details: i.p. 185 nmol/injection; sera 2, 4, 6, 24 hours; 1V270 vs 1V136
Protocol: FIG. 36. […] BALB/c mice (n=5) were i.p. administered IV270 (200 μg=185 nmol/injection) or […] (58 μg=185 nmol/injection) and sera were collected 2, 4, 6, and 24 hours following the administration. The levels of TNFα, IL-12, and IP-IO were measured by Luminex assay. *P<0.05, **P<0.01 by two way ANOVA using a Bonferroni post hoc test comparing treatment groups.
The sera were collected from mice receiving […] of 1V136, 1V270 or vehicle 2, 4, 6, and 24 hours after i.p. administration (15). Cytokine levels in sera were determined by Luminex bead assays (MILLIPLEX™ MAP kit, Millip ore, Billerica, Mass.).

4T1 cells = assay: Ex vivo tumor-specific cytotoxicity study; type: cell-based, BALB/c mice; details: effector to target cell ratio 16:1; vs vehicle
Protocol: FIGS. 23A-23G. Systemic administration of […] induces tumor-specific CD8^+ T cells. (A) Protocol of IV metastasis model. (B) BALB/c mice (n=B-15/group) were i.v. injected with 4T1 cells (2×10^4) on day 0.1V270 (2, 20, or 200 μg/injection) was i.p. administered on days −1, 7, 10, and 14. The numbers of lung nodules were counted on day 21. (C) 200 μg/injection 1V270 was i.p. administered on days −1 or 0 followed by days 7, 10, and 14 where indicated. The numbers of lung nodules were counted on day 21. […] Intracellular granzyme B (D) and IFNγ (E) were analyzed by flow cytometry. […] The percent specific killing was calculated. Data were analyzed by two-way ANOVA using a Bonferroni post hoc test comparing treatment groups against vehicle group. *P<0.05. […]
Tumor-specific cytotoxicity was examined using 4T1 cells as target cells and BALB/3T3 cells as irrelevant cells. […] The frequencies of 4T1 (CFSE high) and BALB/3T3 (CFSE low) cells were determined by flow cytometry, and the percent specific killing was calculated. […]
To examine the role of CD8^+ T cells after systemic 1V270 treatment, mediastinal lymph node (mLN) cells, splenocytes, and lung tissues were analyzed in the IV metastasis model on day 21 (FIGS. 23D-2G). Activation of CD8^+ T cells was assessed by intracellular staining for granzyme B and interferon γ (IFNγ). […]

CD8+ T cells = assay: CD8+ T cell activation (mLN flow cytometry) and lung histology in IV metastasis model; type: in vivo, BALB/c mice; details: day 21, vs vehicle
Protocol: FIGS. 23A-23G. Systemic administration of […] induces tumor-specific CD8^+ T cells. (A) Protocol of IV metastasis model. (B) BALB/c mice (n=B-15/group) were i.v. injected with 4T1 cells (2×10^4) on day 0.1V270 (2, 20, or 200 μg/injection) was i.p. administered on days −1, 7, 10, and 14. The numbers of lung nodules were counted on day 21. (C) 200 μg/injection 1V270 was i.p. administered on days −1 or 0 followed by days 7, 10, and 14 where indicated. The numbers of lung nodules were counted on day 21. Each dot indicates an individual mouse and horizontal and vertical bars indicate means±SEM. *P<0.05, **P<0.01 Kruskal-Wallis test with Dunn's post hoc test comparing treatment groups against vehicle group. (D-G) BALB/c mice (n=10/group) were treated with 1V270 (200 μg/injection) on day-1 and 4T1 cells were inoculated on day 0. (D,E) Three weeks later, mLNs cells were stained for CD3 and CD8. Intracellular granzyme B (D) and IFNγ (E) were analyzed by flow cytometry. Data are representative of 2 independent experiments showing similar results. *P<0.05, by the Mann-Whitney U test comparing the 1V270 treatment groups against the vehicle treated group. (F) Histological analysis of lungs on day 21. Representative images of H&E staining and immunohistochemical staining for CD3 and CD45. Scale bar: 100 μm. Original magnification ×200. (G) Tumor-specific cytotoxicity was examined using 4T1 cells as target cells and BALB/3T3 cells as irrelevant target cells. […] The percent specific killing was calculated. Data were analyzed by two-way ANOVA using a Bonferroni post hoc test comparing treatment groups against vehicle group. *P<0.05. […]
To make the single cell suspensions, tumors were dissociated using the mouse tumor dissociation kit (MiltenyiBiotec, San Diego, Calif.) and the gentle MACSOcto Dissociator according to the manufacture's protocol. […] Total cell number was counted by the ViaCount assay (MilliporeSigma, Darmstadt, Germany). […]

In the case of `CCCCCCCCC=CCCCCCCCC(=O)OCC(COP(=O)(O)OCCNC(=O)c1ccc(Cn2c(=O)[nH]c3c(N)nc(OCCOC)nc32)cc1)OC(=O)CCCCCCCC=CCCCCCCCC` (stereo not drawn) [1V270], the “systemic cytokine release after intranasal administration” value [1] is listed as “without inducing systemic cytokine release”, the “serum cytokine induction (TNFα, IL-12, IP-10)” value [2] is listed as “significantly lower levels of cytokine induction” and the “tumor-specific cytotoxicity of CD8+ T cells” value (4T1 cells) is listed as “significantly higher tumor-specific cytotoxicity”. The “infiltration of CD45+CD3+ cells in the pulmonary tumor microenvironment” value (CD8+ T cells; histology) was “higher infiltration”, the “percentage of IFNγ positive CD8+ T cells” value (CD8+ T cells; mLN, 1V270 200 μg day -1) was “Significantly higher percentages” and the “percentage of granzyme B positive CD8+ T cells” value (CD8+ T cells; mLN, 1V270 200 μg day -1) was “Significantly higher percentages”.
